Results: PubChem BioAssay AID1963833 (Molecular Pharmacology Branch, DTP, NCI, 2024)

Test system: 883617-216-R-J1-PDC complex spheroid viability
Experiment: Anticancer human tumor 883617-216-R-J1-PDC patient-derived bladder carcinoma cell line growth inhibition [POLQ]
Conditions: for IC50: curve of first compound; for viability, T/C: stronger effect = lower value
How it was run: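 Growth inhibition in 3D: complex spheroids (tumor PDC, HUVEC, MSC) treated with POLQ inhibitor combinations; where Cmax unknown, highest tested concentration 10 microM, except SN-38 at 1 microM.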

[1] = second compound 0.0316 µM, first compound 0.0316 µM
[2] = second compound 0.0316 µM, first compound 0.1 µM
[3] = second compound 0.0316 µM, first compound 0.316 µM
[4] = second compound 0.0316 µM, first compound 1 µM
[5] = second compound 0.0316 µM, first compound 3.16 µM
[6] = second compound 0.0316 µM, first compound 10 µM
[7] = second compound 0.1 µM, first compound 0.0316 µM
[8] = second compound 0.1 µM, first compound 0.1 µM
[9] = second compound 0.1 µM, first compound 0.316 µM
[10] = second compound 0.1 µM, first compound 1 µM
[11] = second compound 0.1 µM, first compound 3.16 µM
[12] = second compound 0.1 µM, first compound 10 µM
[13] = second compound 0.316 µM, first compound 0.0316 µM
[14] = second compound 0.316 µM, first compound 0.1 µM
[15] = second compound 0.316 µM, first compound 0.316 µM
[16] = second compound 0.316 µM, first compound 1 µM
[17] = second compound 0.316 µM, first compound 3.16 µM
[18] = second compound 0.316 µM, first compound 10 µM
[19] = second compound 1 µM, first compound 0.0316 µM
[20] = second compound 1 µM, first compound 0.1 µM
[21] = second compound 1 µM, first compound 0.316 µM
[22] = second compound 1 µM, first compound 1 µM
[23] = second compound 1 µM, first compound 3.16 µM
[24] = second compound 1 µM, first compound 10 µM
[25] = second compound 3.16 µM, first compound 0.0316 µM
[26] = second compound 3.16 µM, first compound 0.1 µM
[27] = second compound 3.16 µM, first compound 0.316 µM
[28] = second compound 3.16 µM, first compound 1 µM
[29] = second compound 3.16 µM, first compound 3.16 µM
[30] = second compound 3.16 µM, first compound 10 µM
[31] = second compound 10 µM, first compound 0.0316 µM
[32] = second compound 10 µM, first compound 0.1 µM
[33] = second compound 10 µM, first compound 0.316 µM
[34] = second compound 10 µM, first compound 1 µM
[35] = second compound 10 µM, first compound 3.16 µM
[36] = second compound 10 µM, first compound 10 µM
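Further: spheroids exposed to compounds for seven days before readout.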
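Wherever viability, T/C is given: 100% = DMSO vehicle control viability.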

In the case of `C#Cc1c(F)ccc2cc(O)cc(-c3ncc4c(N5CC6CCC(C5)N6)nc(OCC56CCCN5CC(F)C6)nc4c3F)c12` (stereo unspecified) + Nc1ccc(C#CCN(C(=O)Cc2ncc(C(F)(F)F)cc2C(F)(F)F)c2ccc(F)cc2)nn1, the IC50 (second compound 0.0316 µM) is reported as > 10 µM, the IC50 (second compound 0.1 µM) is reported as > 10 µM and the IC50 (second compound 0.316 µM) is reported as > 10 µM. The IC50 (second compound 1 µM) was > 10 µM, the IC50 (second compound 3.16 µM) was > 10 µM and the IC50 (second compound 10 µM) was > 10 µM. The viability, T/C [1] was 82%, the viability, T/C [2] was 92.8% and the viability, T/C [3] was 97.7%. The viability, T/C [4] was 90.3%, the viability, T/C [5] was 71.7% and the viability, T/C [6] was 75.1%. For the same compound, the viability, T/C [7] was 100%, the viability, T/C [8] was 98.5% and the viability, T/C [9] was 90.6%. The viability, T/C [10] was 93.7%, the viability, T/C [11] was 93% and the viability, T/C [12] was 81%. The viability, T/C [13] was 86.8%, the viability, T/C [14] was 84.2% and the viability, T/C [15] was 87.8%. The viability, T/C [16] was 78.7%, the viability, T/C [17] was 82.1% and the viability, T/C [18] was 84.8%. It also gave a viability, T/C [19] of 108%, a viability, T/C [20] of 87.7% and a viability, T/C [21] of 84.7%. The viability, T/C [22] was 77.9%, the viability, T/C [23] was 82.2% and the viability, T/C [24] was 80.1%. For the same compound, the viability, T/C [25] was 91.1%, the viability, T/C [26] was 89.7% and the viability, T/C [27] was 89.1%. It also gave a viability, T/C [28] of 101%, a viability, T/C [29] of 102% and a viability, T/C [30] of 88.1%. For the same compound, the viability, T/C [31] was 102%, the viability, T/C [32] was 109% and the viability, T/C [33] was 113%. It also gave a viability, T/C [34] of 108%, a viability, T/C [35] of 99.3% and a viability, T/C [36] of 102%.
`C=CC(=O)N1CCN(c2nc(=O)n(-c3c(C)ccnc3C(C)C)c3nc(-c4c(O)cccc4F)c(F)cc23)C(C)C1` (stereo unspecified) + Nc1ccc(C#CCN(C(=O)Cc2ncc(C(F)(F)F)cc2C(F)(F)F)c2ccc(F)cc2)nn1 was tested, and the IC50 (second compound 0.0316 µM) was > 10 µM, the IC50 (second compound 0.1 µM) was > 10 µM and the IC50 (second compound 0.316 µM) was > 10 µM. For the same compound, the IC50 (second compound 1 µM) was > 10 µM, the IC50 (second compound 3.16 µM) was > 10 µM and the IC50 (second compound 10 µM) was > 10 µM. It also gave a viability, T/C [1] of 71.3%, a viability, T/C [2] of 69.1% and a viability, T/C [3] of 67.8%. The viability, T/C [4] was 82.7%, the viability, T/C [5] was 82.3% and the viability, T/C [6] was 83.9%. The viability, T/C [7] was 63.3%, the viability, T/C [8] was 72.8% and the viability, T/C [9] was 64.7%. It also gave a viability, T/C [10] of 72%, a viability, T/C [11] of 81.9% and a viability, T/C [12] of 88.2%. It also gave a viability, T/C [13] of 68.5%, a viability, T/C [14] of 64.8% and a viability, T/C [15] of 61.8%. It also gave a viability, T/C [16] of 72.5%, a viability, T/C [17] of 77.3% and a viability, T/C [18] of 73.4%. It also gave a viability, T/C [19] of 61.4%, a viability, T/C [20] of 57.2% and a viability, T/C [21] of 71.7%. It also gave a viability, T/C [22] of 78.3%, a viability, T/C [23] of 75.8% and a viability, T/C [24] of 91.2%. The viability, T/C [25] was 60.4%, the viability, T/C [26] was 67.2% and the viability, T/C [27] was 71.5%. The viability, T/C [28] was 70.6%, the viability, T/C [29] was 77.8% and the viability, T/C [30] was 91%. For the same compound, the viability, T/C [31] was 64.5%, the viability, T/C [32] was 63.8% and the viability, T/C [33] was 73.9%. It also gave a viability, T/C [34] of 77.2%, a viability, T/C [35] of 91.1% and a viability, T/C [36] of 72.1%.
`CC(C)n1c(=O)n(C)c2cnc3cc(F)c(-c4ccc(OCCCN5CCCCC5)nc4)cc3c21` + Nc1ccc(C#CCN(C(=O)Cc2ncc(C(F)(F)F)cc2C(F)(F)F)c2ccc(F)cc2)nn1 was tested, and the IC50 (second compound 0.0316 µM) was > 10 µM, the IC50 (second compound 0.1 µM) was > 10 µM and the IC50 (second compound 0.316 µM) was > 10 µM. For the same compound, the IC50 (second compound 1 µM) was > 10 µM, the IC50 (second compound 3.16 µM) was > 10 µM and the IC50 (second compound 10 µM) was > 10 µM. The viability, T/C [1] was 95.3%, the viability, T/C [2] was 94.5% and the viability, T/C [3] was 96%. For the same compound, the viability, T/C [4] was 108%, the viability, T/C [5] was 82.6% and the viability, T/C [6] was 75.6%. The viability, T/C [7] was 95.7%, the viability, T/C [8] was 114% and the viability, T/C [9] was 87.6%. The viability, T/C [10] was 100%, the viability, T/C [11] was 95% and the viability, T/C [12] was 69.8%. For the same compound, the viability, T/C [13] was 112%, the viability, T/C [14] was 89.5% and the viability, T/C [15] was 98.9%. For the same compound, the viability, T/C [16] was 119%, the viability, T/C [17] was 80.8% and the viability, T/C [18] was 73.8%. For the same compound, the viability, T/C [19] was 108%, the viability, T/C [20] was 104% and the viability, T/C [21] was 113%. The viability, T/C [22] was 104%, the viability, T/C [23] was 92.2% and the viability, T/C [24] was 72.7%. It also gave a viability, T/C [25] of 101%, a viability, T/C [26] of 95.7% and a viability, T/C [27] of 104%. The viability, T/C [28] was 98%, the viability, T/C [29] was 98.3% and the viability, T/C [30] was 76.4%. It also gave a viability, T/C [31] of 117%, a viability, T/C [32] of 121% and a viability, T/C [33] of 120%. The viability, T/C [34] was 103%, the viability, T/C [35] was 109% and the viability, T/C [36] was 81.8%.
